The values that follow come from article PMC4908180 (American Journal of Human Genetics, 2016).

Each structure is given as a SMILES string.

This assay concerns the target 6His-tagged human FADS isoform 2 (FADS2), WT (Homo sapiens, UniProt Q8NFF5). The assay is described as follows: UV/Vis spectra. The following applies: reaction product, non-covalent; bound flavin as purified. The assay is classed as binding.

Chain of 6His-tagged human FADS isoform 2 (FADS2), WT (Q8NFF5 98-587): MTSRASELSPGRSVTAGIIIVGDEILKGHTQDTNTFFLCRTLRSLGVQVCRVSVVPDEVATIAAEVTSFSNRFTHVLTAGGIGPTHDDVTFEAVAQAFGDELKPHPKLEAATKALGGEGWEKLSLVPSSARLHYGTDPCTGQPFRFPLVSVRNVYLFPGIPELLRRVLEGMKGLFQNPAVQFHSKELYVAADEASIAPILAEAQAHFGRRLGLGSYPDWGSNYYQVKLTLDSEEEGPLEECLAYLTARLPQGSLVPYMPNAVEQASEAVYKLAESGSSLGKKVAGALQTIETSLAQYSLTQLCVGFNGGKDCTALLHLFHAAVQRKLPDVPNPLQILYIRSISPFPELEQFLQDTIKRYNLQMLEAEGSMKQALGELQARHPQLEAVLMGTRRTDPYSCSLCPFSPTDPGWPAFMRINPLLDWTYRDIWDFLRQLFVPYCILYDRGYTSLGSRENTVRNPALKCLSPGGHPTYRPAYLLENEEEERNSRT

On to `Cc1cc2nc3c(=O)[nH]c(=O)nc-3n(C[C@H](O)[C@H](O)[C@H](O)COP(=O)(O)OP(=O)(O)OC[C@H]3O[C@@H](n4cnc5c(N)ncnc54)[C@H](O)[C@@H]3O)c2cc1C` [FAD], for which the “UV/Vis spectra (FAD saturation of purified protein)” value is “Spectrophotometric analysis of the purified WT, p.Ser495del, and p.Arg530Cys FADS2 proteins”.
